Measurements: publication PMC5681660, “Reduced hepatitis B and D viral entry using clinically applied drugs as novel inhibitors of the bile acid transporter NTCP” (Scientific Reports, 2017)
Counter-ions that a name gives are not always drawn.

How the values were obtained:
[1] = biological target: T1, human NTCP (Homo sapiens, UniProt Q14973); assay: Screening fluorescent competitive Myrcludex B-FITC binding assay (96-well, 10 µM drug); conditions: 10 µM drug
T1 sequence (Q14973 1-349): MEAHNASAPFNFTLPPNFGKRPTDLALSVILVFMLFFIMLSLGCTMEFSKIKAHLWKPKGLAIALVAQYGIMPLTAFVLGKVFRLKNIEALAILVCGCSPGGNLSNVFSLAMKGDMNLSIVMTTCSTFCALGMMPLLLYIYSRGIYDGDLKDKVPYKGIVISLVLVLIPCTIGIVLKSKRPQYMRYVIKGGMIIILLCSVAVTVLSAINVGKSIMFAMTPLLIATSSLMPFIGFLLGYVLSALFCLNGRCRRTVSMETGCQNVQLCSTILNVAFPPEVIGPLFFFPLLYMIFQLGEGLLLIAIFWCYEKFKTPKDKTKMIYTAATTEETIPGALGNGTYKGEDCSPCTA

[2] = biological target: T1, human NTCP; assay: Screening taurocholate uptake assay (96-well, [14C]taurocholate, 10 µM drug); conditions: for B-score functional assay: 10 µM drug
[3] = screen, Myrcludex B-FITC binding
[4] = combined ranking from functional and binding screening assays
[5] = Prestwick library screen, Myrcludex B-FITC binding
[6] = Prestwick library screen, taurocholate uptake
[7] = ranking score beside the functional and binding assay B-scores of the screen
[8] = Prestwick library screen, B-score of Myrcludex B-FITC binding
[9] = Prestwick library screen, B-score of taurocholate uptake
[10] = combined ranking from functional and binding assay B-scores

CC(C(=O)[O-])c1cccc(Oc2ccccc2)c1.CC(C(=O)[O-])c1cccc(Oc2ccccc2)c1.O.O.[Ca+2] (stereo not drawn) [Fenoprofen calcium salt dihydrate]
B-score binding assay [1, 3]: 0.022 | Ranking score [2, 4]: 452.388 | B-score functional assay ([2]; screen, taurocholate uptake): -0.759

CCCCCCCN(CC)CCCC(O)c1ccc(NS(C)(=O)=O)cc1.CCCCCCCN(CC)CCCC(O)c1ccc(NS(C)(=O)=O)cc1.O=C(O)/C=C/C(=O)O (stereo not drawn) [Ibutilide fumarate]
B-score binding assay [1, 5]: 0.907 | B-score functional assay [2, 6]: 0.035 | Ranking score [2, 7]: 835.048

C[C@H]1O[C@H](O[C@H]2[C@H](O)[C@@H](O)[C@@H](O[C@H]3[C@H](O)[C@@H](O)C(O)O[C@@H]3CO)O[C@@H]2CO)[C@H](O)[C@@H](O)[C@@H]1N[C@H]1C=C(CO)[C@@H](O)[C@H](O)[C@H]1O (stereo partly drawn) [Acarbose]
B-score binding assay [1, 5]: -0.109 | B-score functional assay [2, 6]: 1.632 | Ranking score [2, 7]: 792.136

Brc1c(NC2=NCCN2)ccc2nccnc12.O=C(O)C(O)C(O)C(=O)O [Brimondine L-Tartrate]
B-score binding assay [1, 3]: -0.57 | Ranking score [2, 4]: 294.551 | B-score functional assay ([2]; screen, taurocholate uptake): -1.091

C1N2CN3CN1CN(C2)C3 [Methenamine]
B-score binding assay [1, 8]: 0.067 | B-score functional assay [2, 9]: 1.472 | Ranking score [2, 10]: 906.386

CC(=O)Nc1c(I)c(C(=O)N[C@H]2C(O)O[C@H](CO)[C@@H](O)[C@@H]2O)c(I)c(N(C)C(C)=O)c1I (stereo partly drawn) [Metrizamide]
B-score binding assay [1, 5]: 0.138 | B-score functional assay [2, 6]: 0.395 | Ranking score [2, 7]: 816.081

Clc1ccc(C(Cn2ccnc2)OCc2c(Cl)cccc2Cl)c(Cl)c1 (stereo not drawn) [Isoconazole]
B-score binding assay [1, 8]: 2.982 | B-score functional assay [2, 9]: 0.797 | Ranking score [2, 10]: 1126.41

O=S(=O)(O)c1cc(O)ccc1O [Ethamsylate]
B-score binding assay [1, 8]: 1.4 | B-score functional assay [2, 9]: 0.032 | Ranking score [2, 10]: 873.696

C=CC(N)CCC(=O)O (stereo not drawn) [Vigabatrin]
B-score binding assay [1, 5]: 0.671 | B-score functional assay [2, 6]: -0.08 | Ranking score [2, 7]: 730.208

O=C1c2cccc3c2[C@H](CCC3)CN1[C@@H]1CN2CCC1CC2 [Palonosetron hydrochloride]
B-score binding assay [1, 5]: -0.051 | B-score functional assay [2, 6]: 1.95 | Ranking score [2, 7]: 833.96

CO[C@H]1C[C@H](O[C@H]2[C@H](C)[C@@H](O[C@@H]3O[C@H](C)C[C@H](N(C)C)[C@H]3OC(C)=O)[C@@H](C)C[C@@]3(CO3)C(=O)[C@H](C)[C@@H](OC(C)=O)[C@@H](C)[C@@H](C)OC(=O)[C@@H]2C)O[C@@H](C)[C@@H]1OC(C)=O [Troleandomycin]
B-score binding assay [1, 5]: 0.633 | B-score functional assay [2, 6]: -0.071 | Ranking score [2, 7]: 732.508

CNC(=O)c1c(I)c(C(=O)NCC(=O)Nc2c(I)c(C(=O)O)c(I)c(C(=O)NCCO)c2I)c(I)c(N(C)C(C)=O)c1I [Ioxaglic acid]
B-score binding assay [1, 5]: 2.105 | B-score functional assay [2, 6]: -0.19 | Ranking score [2, 7]: 769.829

Cc1cc2c(cc1S(N)(=O)=O)S(=O)(=O)CCC2 [Meticrane]
B-score binding assay [1, 8]: -0.016 | B-score functional assay [2, 9]: 3.166 | Ranking score [2, 10]: 878.911

CN1C(C(=O)Nc2ccccn2)=C(O)c2ccccc2S1(=O)=O [Piroxicam]
B-score binding assay [1, 5]: -0.312 | B-score functional assay [2, 6]: 0.754 | Ranking score [2, 7]: 662.993

NC(=O)CN1CCCC1=O [Piracetam]
B-score binding assay [1, 5]: -0.345 | B-score functional assay [2, 6]: 0.881 | Ranking score [2, 7]: 661.843

CC1(C)O[C@@H]2[C@@H](CO[C@@]3(COS(N)(=O)=O)OC(C)(C)O[C@@H]23)O1 [Topiramate]
B-score binding assay [1, 5]: -0.268 | B-score functional assay [2, 6]: 1.004 | Ranking score [2, 7]: 700.689

C[C@@H](c1ncncc1F)[C@](O)(Cn1cncn1)c1ccc(F)cc1F [Voriconazole]
B-score binding assay [1, 3]: -0.464 | Ranking score [2, 4]: 370.988 | B-score functional assay ([2]; screen, taurocholate uptake): -0.582

Nc1nc(=O)c2c([nH]1)NCC(CNc1ccc(C(=O)N[C@@H](CCC(=O)[O-])C(=O)[O-])cc1)N2C=O.[Ca+2] (stereo partly drawn) [Folinic acid calcium salt]
B-score binding assay [1, 5]: 0.117 | B-score functional assay [2, 6]: 0.369 | Ranking score [2, 7]: 806.918

O=C(Oc1cccc2cccnc12)c1ccccc1 [Benzoxiquine]
B-score binding assay [1, 3]: -0.876 | Ranking score [2, 4]: 381.13 | B-score functional assay ([2]; screen, taurocholate uptake): -0.093

CC(C)(Oc1ccc(Cl)cc1)C(=O)O [Clofibric acid]
B-score binding assay [1, 8]: 0.048 | B-score functional assay [2, 9]: 1.224 | Ranking score [2, 10]: 881.708

O=C(CCCN1CC=C(n2c(=O)[nH]c3ccccc32)CC1)c1ccc(F)cc1 [Droperidol]
B-score binding assay [1, 5]: 0.092 | B-score functional assay [2, 6]: 0.035 | Ranking score [2, 7]: 713.526
